Measurements published in ChEMBL document CHEMBL5729352, “Broad spectrum antiviral compositions and methods” (2022).

Test: Assessing Antiviral Activity Against Human Cytomegalovirus (HCMV): To assess their antiviral activity, some compounds were tested against human cytomegalovirus (HCMV) in vitro. Human […] cells were grown to confluency (˜1.0×10^4 cells/well) in 96-well plate format in Dulbecco's Modified Eagle Medium (DMFM) supplemented with 10% fetal bovine serum (FBS) 2 mM L-glutamine, 0.1 mM non-essential amino acids, 10 mM HEPES, and 100 U/ml each of penicillin and streptomycin and infected with an HCMV variant expressing mCherry tagged pUL99 (the product of late viral UL99 gene) at a multiplicity of 0.01 infectious unit (IU) per cell. Assays were performed in triplicate. One hour later, medium of the cells was replaced with fresh medium containing the indicated compounds at 25, 12.5, 6.25, 3.13, 1.56, 0.78, 0.39 μM or the carrier in which the compounds are dissolved (DMSO). Final concentration of DMSO was 0.5% in each treatment. Virus yield in the culture was determined at 7 days post infection by quantification of fluorescent (mCherry positive) cells in each well by fluorescent microscopy. Results were plotted using CDD Vault (CDD Vault was developed by Collaborative Drug Discovery, Inc., 1633 Bayshore Hwy, Suite 342, Burlingame, Calif. 94010) in order to calculate IC50s.
Format: cell-based

SMILES: NC(=O)c1cccc(Cc2cnc(N3CCc4cc5c(cc4C3)OCCO5)s2)c1
- IC50: 8.63 µM
